The subject of test [1] is Alicyclobacillus acidocaldarius maltose uptake. To be noted: cited from earlier work.
The target in test [2] is Agrobacterium tumefaciens ThuE (AtThuE) sucrose binding protein carrying N192D (SEQ ID NO: 2) fused between ECFP and EYFP, sensor FLIPsuc4μ (FLIPsuc), wt (indic (Agrobacterium fabrum, UniProt A9CF11, N212D)). The experiment in a line: in vitro FRET titration of purified sensor FLIPsuc4μ. Conditions: for binding (extent relative to sucrose): 5× Kd (20 μM), FRET micro plate assay (FIG. 4); for affinity relative to that for sucrose: FIG. 1C titration curves; for Δratio (maximum ratio change): in vitro, no binding to saturated binding; for recognition (binding): even after addition of higher sugar concentrations (50× Kd). The source says:
(§1) Because the maltose/trehalose/sucrose binding protein from Agrobacterium tumefaciens (AtThuE) is 78.9% identical over predicted mature region of the SmThuE protein (SEQ ID NO: 2) and is 21.4% homologous to the maltose binding protein from E. coli (malE), we attempted to clone the AtThuE binding protein. To isolate the gene, a PCR product from genomic Agrobacterium tumefaciens (strain C58C1) DNA encoding mature AtThuE without signal sequence and stop codon was cloned into the KpnI site between ECFP and EYFP genes (FIG. 1A). The chimeric gene was inserted into pRSET (Invitrogen) and transferred to E. coli BL21(DE3)Gold (Stratagene). […] It is unknown whether this difference corresponds to a mutation or natural variation. Since N192D was outside the binding pocket and since AtThuE carrying the mutation was functional as a sugar sensor (see Table 1), all further experiments were carried out with the nanosensor named FLIPsuc4μ carrying the mutation N192D. FLIPsuc proteins were extracted from BL21(DE3)gold and purified as described (Fehr et al. 2002).
(§2) A DNA fragment encoding the mature Agrobacterium tumefaciens maltose/trehalose/sucrose BP protein was fused between the ECFP and EYFP sequences as described above. The chimeric gene was expressed in E. coli and the protein product purified and assayed for substrate specificity.
(§3) Substrate titration curves and substrate specificity analysis were performed on Safire (Tecan) fluorometer. ECFP was excited at 433 nm and emission was set to 485 nm and 528 nm for ECFP and EYFP, respectively (bandwidth 12 nm). All in vitro analyses were performed in 20 mM MOPS buffer at pH 7. FRET was determined as EYFP-ECFP emission intensity ratio. Using the change in ratio upon ligand binding, binding constants (Kd) were determined by fitting substrate titration curves to equation 1: S=1−(r−rmin)(rmax−rmin)=[S]b/[P]t=n[S]/(Kd+[S]), where [S] is substrate concentration; [S]b, concentration of bound substrate; n, number of binding sites; [P]t, total concentration of binding protein; r, ratio; rmin, minimum ratio in absence of ligand; rmax, maximum ratio at saturation. Hill coefficients were determined using Hill equation 2: S=(n[S]^n)/(Kd+[S]^n).
(§4) SmThuE is mainly functioning as a trehalose and maltose binding protein. Sucrose is thought to be transported to a lesser extent. FLIPsuc4μ was therefore incubated with trehalose, maltose and other related sugars to test for its binding capacities. Substrate-induced conformational changes were measured using FRET in micro plate assays. […] Maltose and glucose were chosen for further analysis of FLIPsuc4μ and its mutants since they are important sugars in plants and might therefore interfere with sucrose measurements in vivo. […] Most mutants show similar patterns with higher affinity for maltose than sucrose. FLIPsuc-10μ is the most significant example with an 83 times higher affinity for maltose than sucrose (Table 1). The D115 mutants both show the highest affinity for maltose compared to sucrose and […], but to a different extent.

In test [3] the target is Agrobacterium tumefaciens AtThuE sensor FLIPsuc4μ variant F113A (FLIPsuc10μ, FLIPsucF113A) (Agrobacterium fabrum, UniProt A9CF11, F133A/N212D). The experiment in a line: in vitro FRET titration of affinity mutant FLIPsuc10μ. The class given is binding. Conditions: for Δratio (change in ratio): in vitro, no binding to saturated binding. As to the method:
as §3
(§5) To expand the dynamic range of the sucrose sensor, site directed mutagenesis was used as described above to lower the binding affinity of the sucrose binding domain. Affinity mutants of FLIPsuc4μ were generated. Alignment together with modeling of AtThuE with maltose binding proteins that have been crystallized helped predict residues important for ligand binding. […] Mutant forms carrying substitutions F113A, D115A, D115E, D115N, W244A, Y246A and W283A were generated using Kunkel mutagenesis (Kunkel et al. 1991) in the mutant background of FLIPsuc41t. The affinity mutants were designated as FLIPsucF113A, FLIPsucW283A, FLIPsucD115A, FLIPsucD115E, FLIPsucY246A, and FLIPsucW244A. All six mutants have lower affinities for sucrose than that of FLIPsuc4μ, with a Kd value varying from 10 μM to the higher mM range (Table 1). The starting ratio between EYFP and ECFP ranges from 1.4 to close to 2.0, which is also similar to what has been seen in other sugar sensors (FLIPmal, FLIPglu and FLIPrib). Introducing substitution F113A into the ThuE moiety of FLIPsuc4μ produced FLIPsuc10μ, which has a binding constant (Kd) of 10 μM for sucrose, thus providing a range for sucrose quantification between at least 1 μM and 90 μM (Table 1).

Test [4] has as its target Agrobacterium tumefaciens AtThuE sensor FLIPsuc4μ variant D115A (FLIPsuc1m, FLIPsucD115A) (Agrobacterium fabrum, UniProt A9CF11, D135A/N212D). The test is described as follows: in vitro FRET titration of affinity mutant FLIPsuc1m. The format is binding. Conditions: for Δratio (delta ratio): no binding to saturated binding. As to the method:
as §3, §5

The target of test [5] is Agrobacterium tumefaciens AtThuE sensor FLIPsuc4μ variant D115E (FLIPsuc3m, FLIPsucD115E) (Agrobacterium fabrum, UniProt A9CF11, D135E/N212D). The test is described as follows: in vitro FRET titration of affinity mutant FLIPsuc3m. To be noted: for Δratio (delta ratio): no binding to saturated binding. The class given is binding. The method, then:
as §3, §5

Test [6] deals with Agrobacterium tumefaciens AtThuE sensor FLIPsuc4μ variant W283A (FLIPsuc88μ, FLIPsucW283A) (Agrobacterium fabrum, UniProt A9CF11, N212D/W303A). The test is described as follows: in vitro FRET titration of affinity mutant FLIPsuc88μ. To be noted: in vitro; for Δratio: no binding to saturated binding. The format is binding. As to the method: as §3, §5
For test [7], the target named is Alicyclobacillus acidocaldarius maltose binding protein (AaMalE). To be noted: cited from earlier work.
The target of test [8] is Agrobacterium tumefaciens AtThuE sensor FLIPsuc4μ variant W244A (FLIPsuc46m, FLIPsucW244A) (Agrobacterium fabrum, UniProt A9CF11, N212D/W264A). The test is described as follows: in vitro FRET titration of affinity mutant FLIPsuc46m. The class given is binding. The method, then: as §3, §5
Test [9] deals with Agrobacterium tumefaciens AtThuE sensor FLIPsuc4μ variant Y246A (FLIPsuc15m, FLIPsucY246A) (Agrobacterium fabrum, UniProt A9CF11, N212D/Y266A). The experiment in a line: in vitro FRET titration of affinity mutant FLIPsuc15m. The format is binding. To be noted: for Δratio: in vitro, no binding to saturated binding. As to the method: as §3, §5
For test [10], the target named is Agrobacterium tumefaciens ThuE (AtThuE) sucrose binding protein carrying N192D (SEQ ID NO: 2) fused between ECFP and EYFP, sensor FLIPsuc4μ (FLIPsuc), wt (indicator SEQ ID NO: 4) (Agrobacterium fabrum, UniProt A9CF11, N212D). The test is described as follows: in vitro FRET titration of purified sensor FLIPsuc4μ.
Text: as §1, §2, §3, §4

The mark [11] stands for this setting: 20 mM MOPS pH 7, FRET titration.

For orientation: Kd means a measure of binding affinity in units of concentration.

On to `C[C@H]1O[C@H](O[C@H]2[C@H](O)[C@@H](O)[C@@H](O[C@H]3[C@H](O)[C@@H](O)C(O)O[C@@H]3CO)O[C@@H]2CO)[C@H](O)[C@@H](O)[C@@H]1N[C@H]1C=C(CO)[C@@H](O)[C@H](O)[C@H]1O` (some centres unmarked) [acarbose], for which the “inhibition of uptake of radiolabeled maltose” value (shortened to “inhibition”) in test [1] is “inhibited”.

As for `OC[C@H]1OC(O)(CO)[C@@H](O[C@H]2O[C@H](CO)[C@@H](O)[C@H](O)[C@H]2O)[C@@H]1O` (some centres unmarked) [turanose], the “binding (extent relative to sucrose)” value in [2] was “to the same extent or better than sucrose”.

Regarding `OC[C@H]1O[C@H](O[C@H]2[C@H](O)[C@@H](O)C(O)O[C@@H]2CO)[C@H](O)[C@@H](O)[C@@H]1O` (some centres unmarked) [maltose], the Kd in [3] was 0.12 µM; in test [4] (setting [11]) it was 51 µM; in test [5] (setting [11]), 1530 µM; in test [5] (FRET titration), 1500 µM; in [6] (setting [11]) it was 265 µM; in [7] it was 1.5 µM. The Kd in test [8] is 26500 µM; in test [9], 56 µM; in [10], 0.23 µM. The “Δratio (change in ratio)” value in test [3] amounted to 0.12. The “Δratio (delta ratio)” value is listed as 0.37 in test [4] and 0.39 in test [5]. Further, the Δratio in test [6] came out at 0.25; in test [8] (in vitro, no binding to saturated binding), 0.42; in [9], 0.14. In test [2], the “binding (extent relative to sucrose)” value is recorded as “to the same extent or better than sucrose”. Further, in test [2], the “affinity relative to that for sucrose” value was “higher”. In addition, in [2], the “Δratio (maximum ratio change)” value is 0.21.

Regarding `OC[C@H]1O[C@H](OC[C@H]2OC(O)(CO)[C@@H](O)[C@@H]2O)[C@H](O)[C@@H](O)[C@@H]1O` (some centres unmarked) [palatinose], the “binding (extent relative to sucrose)” value in test [2] is “to lesser extent”.

On to `OC[C@H]1OC(O)[C@H](O)[C@@H](O)[C@H]1O` (some centres unmarked) [galactose], for which, in test [2], the “recognition (binding)” value is “not recognized”.

Turning to `OC[C@H]1O[C@H](O[C@H]2O[C@H](CO)[C@@H](O)[C@H](O)[C@H]2O)[C@H](O)[C@@H](O)[C@@H]1O` [trehalose], in test [2], the “binding (extent relative to sucrose)” value is “to the same extent or better than sucrose”.

In the case of `OC[C@H]1O[C@@H](O[C@H]2[C@H](O)[C@@H](O)C(O)O[C@@H]2CO)[C@H](O)[C@@H](O)[C@@H]1O` (some centres unmarked) [cellobiose], the “recognition (binding)” value in test [2] is “not recognized”.

In the case of `OC[C@H]1OC(O)[C@H](O)[C@@H](O)[C@@H]1O` (some centres unmarked) [glucose], the Kd worked out at 106 µM in test [3]; 16200 µM in [4] (setting [11]); 16000 µM in [4] (FRET titration); 9110 µM in [5] (setting [11]); 9100 µM in test [5] (FRET titration); 7210 µM in test [6] (setting [11]). Moreover, the Kd in test [6] (FRET titration) came out at 7200 µM; in test [9] it was 554 µM; in test [10], 27 µM. Further, the “Δratio (change in ratio)” value in test [3] worked out at 0.12. In addition, the “Δratio (delta ratio)” value in [4] worked out at 0.50; in test [5] it was 0.44. Also, the Δratio turned out to be 0.21 in test [6] and 0.07 in test [9]. For the same molecule, the “binding (extent relative to sucrose)” value in test [2] is given as “to lesser extent”. Moreover, the “affinity relative to that for sucrose” value in [2] is reported as “in the same range as that for sucrose”. Also, the “Δratio (maximum ratio change)” value in [2] is reported as 0.18.

Regarding `OCC1(O)OC[C@@H](O)[C@@H](O)[C@@H]1O` (some centres unmarked) [Fructose], the “recognition (binding)” value in test [2] is “not recognized”.

As to `OC[C@H]1O[C@H](O[C@H]2[C@H](O)[C@@H](O)[C@@H](O[C@H]3[C@H](O)[C@@H](O)[C@@H](O[C@H]4[C@H](O)[C@@H](O)C(O)O[C@@H]4CO)O[C@@H]3CO)O[C@@H]2CO)[C@H](O)[C@@H](O)[C@@H]1O` (some centres unmarked) [maltotetraose], the “inhibition” value in test [1] was “inhibited”.

For cyclodextrins, the “inhibition” value in test [1] was “inhibited”.

The values above are taken from patent US8173863B2, “Sucrose biosensors and methods of using the same” (Carnegie Institution of Washington, priority 2005, dated 2012).
